Laboratory results reported in patent publication US11446283B2, “Methods and dosing regimens using ibudilast and a second agent for cancer therapy” (MediciNova, Inc., priority 2018, dated 2022).

Key:
[1] = system: Patient-derived cell line RN1 (MGMT unmethylated GBM); experiment: Efficacy in balb/c nude mice harboring intracranial patient-derived glioblastoma (RN1), Kaplan-Meier survival; conditions: for survival rate: at 105 days, control 0%; for median survival time: gavage daily; for mice that survived longer than the longest surviving mouse in the control group: n=8
Procedure: Patient-derived cell line RN1 (2 μL) was intra-cranially injected into balb/c nude mice.
6-8 week old balb/c nude mice were used. All procedures, except autopsies, were carried out within a laminar flow cabinet. Tumors were induced following the procedure disclosed in Wakimoto H. et al. (2012) Neuro Oncol. 14(2): 132-44. Balb/c nude mice were weighed and held in groups of four. The mice received an analgesic 2 hours prior to primary human tumor cell implantation—the mice were injected subcutaneously with 5 mg/kg Rimadyl (Carprofen). The animals were anesthetized via continuous mask inhalation of isoflurane (2.5-3%, 1 L/min oxygen for induction and 1-2.5%, 0.2 L/min oxygen for maintenance). The depth of anesthesia was assessed by toe pinch reflex (leg withdrawal) before the procedure began (cf. monitoring sheet #1).
A 2 mm drill hole was made at the stereotactically in the right caudate putamen using the coordinates 1 mm anterior, 1.5 mm lateral, and 3.0 mm below the bregma. A micro-injector unit (holding a 2 μl Hamilton syringe with a 25-gauge needle) connected to the manipulating arm of the stereotactic device was used to inject a 2 μL solution containing 200,000 primary human tumor cells dorsoventrally (DV) at −3 from the skull surface, to deposit cells into the lateral portion of the striatum (right basal ganglia). All injections were made over a period of 10 minutes to ensure optimal parenchymal compliance. The micro-injector needle was retracted and the burr hole in the skull closed using bone-wax (Johnson & Johnson) in order to prevent extracranial tumor growth. Skin was closed using a tissue adhesive (Vetbond). Mice received sterile eye drops (Systane) throughout the procedure to avoid eye dryness.
Two dosages of ibudilast were administered to the balb/c nude mice: 5 mg/kg and 20 mg/kg (both in 100 uL total volume). The dosage of ibudilast was extrapolated from multiple animal studies on rats looking at the treatment of multiple sclerosis (MS) disease and models of central neuropathic pain (Ellis et al. 2014; Reagan-shaw et al. 2008).
10 mg/kg of temozolomide (TMZ) was administered to the balb/c nude mice through intraperitoneal injection.
Five treatment groups were used as follows: • 1. Ibudilast 5 mg/kg by gavage (n=8) • 2. Ibudilast: 20 mg/kg by gavage (n=8) • 3. Combination 1: Ibudilast (5 mg/kg)+TMZ (10 mg/kg) (n=8) • 4. Combination 2: Ibudilast (20 mg/kg)+TMZ (10 mg/kg) (n=8) • 5. Control saline containing polyoxyethylene hydrogenated castor oil 60; 100 μL) (n=8)
For all of the treatment groups (except the control group), ibudilast was administered by gavage (daily) for approximately 59 days (until the last control mouse died) and TMZ was administered via intraperitoneal injection (daily) for two weeks.
At approximately 43 days after tumor implantation, mice were treated with temozolomide (10 mg/kg) and/or ibudilast (5 mg/kg or 20 mg/kg). Ibudilast was administered in a solution of saline containing polyoxyethylene hydrogenated castor oil 60 using the gavage method (100 μl total volume) (Fujimoto et al., 1999 J Neuroimmunology 95:1-2, 35-42). Temozolomide was delivered by intraperitoneal injection (I.P.) in 0.1% dimethyl sulfoxide (DMSO, […] total volume).
At this particular time, animals were carefully monitored (twice daily) as neurological decline can occur rapidly. Typical signs of neurological decline include a hunched posture with an arched back, continuous circling, walking on tip-toes, balance issues, closed eyes, hyperactivity, and seizures. Neurological decline was scored (cf. monitoring sheet #3) for each animal.
When signs of pain, distress or neurological decline were noted, animals were immediately euthanized by inhalation of a progressive overdose of carbon dioxide (cf. B.7). Animals were also immediately euthanized if they lost more than 20% of their body weight.

[2] = in vivo; cited from earlier work

Cn1nnc2c(C(N)=O)ncn2c1=O [TMZ, temozolomide]
median survival ([1]; TMZ 10 mg/kg intraperitoneal daily for two weeks, control 100.5 days): 105.5 days

CC(C)C(=O)c1c(C(C)C)nn2ccccc12 [ibudilast, 3-isobutyryl-2-isopropylpyrazolo[1,5-a]pyridine]
effect in the mouse glioblastoma model ([1]; 5 and 20 mg/kg): positive effect | survival rate ([1]; ibudilast 5 mg/kg): 12% | survival rate ([1]; ibudilast 20 mg/kg): 25% | median survival time ([1]; ibudilast 5 mg/kg (low dose) monotherapy, control 100.5 days): 89 days | mice that survived longer than the longest surviving mouse in the control group ([1]; ibudilast 5 mg/kg): one mouse | median survival time ([1]; ibudilast 20 mg/kg (high dose) monotherapy, control 100.5 days): 97.5 days | mice that survived longer than the longest surviving mouse in the control group ([1]; ibudilast 20 mg/kg): two mice | median survival compared with controls (significance) ([1]; monotherapy at either low dose (5 mg/kg) or high dose (20 mg/kg)): did not significantly differ from the controls | CNS penetration [2]: good CNS penetration

COc1ccc(C2CNC(=O)C2)cc1OC1CCCC1 (centres unmarked) [rolipram]
CNS penetration [2]: poor penetration
